# Measurements as given in publication PMC11288027, “Exploring novel microbial metabolites and drugs for inhibiting Clostridioides difficile” (mSphere, 2024).
# Where a name gives a salt, the structure may show the parent alone. Read-outs that look alike come from different tables or passages of the source.
# Columns and labels:
# [1] = test system: C. difficile clinical isolates; test: MIC against a panel of 20 C. difficile clinical isolates (broth microdilution); type: cell-based, Clostridioides difficile; conditions: Clostridioides difficile; for MIC50: concentration that inhibited 50% of the 20 C. difficile clinical isolates
# [2] = test system: B. fragilis; test: MIC against human gut microbiota; type: cell-based, Bacteroides fragilis; conditions: for MIC: Bacteroides fragilis, read-out: minimum inhibitory concentration (MIC)
# [3] = test system: B. dorei; test: MIC against human gut microbiota; type: cell-based, Bacteroides dorei; conditions: Phocaeicola dorei, read-out: minimum inhibitory concentration (MIC)
# [4] = test system: Bif. breve; test: MIC against human gut microbiota; type: cell-based, Bifidobacterium breve; conditions: Bifidobacterium breve
# [5] = test system: Bif. angulatum; test: MIC against human gut microbiota; type: cell-based, Bifidobacterium angulatum; conditions: Bifidobacterium angulatum, read-out: minimum inhibitory concentration (MIC)
# [6] = test system: Bif. adolescentis; test: MIC against human gut microbiota; type: cell-based, Bifidobacterium adolescentis; conditions: Bifidobacterium adolescentis, read-out: minimum inhibitory concentration (MIC)
# [7] = test system: Bif. longum; test: MIC against human gut microbiota; type: cell-based, Bifidobacterium longum; conditions: Bifidobacterium longum, read-out: minimum inhibitory concentration (MIC)
# [8] = test system: E. faecium; test: MIC against human gut microbiota; type: cell-based, Enterococcus faecium; conditions: Enterococcus faecium, read-out: minimum inhibitory concentration (MIC)
# [9] = test system: E. fecalis; test: MIC against human gut microbiota; type: cell-based, Enterococcus faecalis; conditions: Enterococcus faecalis, read-out: minimum inhibitory concentration (MIC)
# [10] = test system: L. casei; test: MIC against human gut microbiota; type: cell-based; conditions: Lacticaseibacillus casei
# [11] = test system: L. brevis; test: MIC against human gut microbiota; type: cell-based, Lactobacillus brevis; conditions: Levilactobacillus brevis
# [12] = test system: L. rhamanosus; test: MIC against human gut microbiota; type: cell-based, Lactobacillus rhamnoosus; conditions: Lactobacillus
# [13] = test system: C. difficile ATCC BAA-1870; test: Time-kill assay at 5 × MIC; conditions: C. difficile ATCC BAA-1870, ~10^6 CFU/mL, up to 24 h
# [14] = test system: C. difficile ATCC BAA-1870; test: MIC of active hits by broth microdilution; conditions: for MIC: Clostridioides difficile, ATCCBAA1870, 48 h
# [15] = C. difficile ATCC BAA-1870, 48 h anaerobic
compound,measurement,setting,value
"CN[C@H](CC(C)C)C(=O)N[C@H]1C(=O)N[C@@H](CC(N)=O)C(=O)N[C@H]2C(=O)N[C@H]3C(=O)N[C@H](C(=O)N[C@H](C(=O)O)c4cc(O)cc(O)c4-c4cc3ccc4O)[C@H](O)c3ccc(c(Cl)c3)Oc3cc2cc(c3O[C@@H]2O[C@H](CO)[C@@H](O)[C@H](O)[C@H]2O[C@H]2C[C@](C)(N)[C@H](O)[C@H](C)O2)Oc2ccc(cc2Cl)[C@H]1O [Vancomycin, vancomycin hydrochloride]",MIC90,[1],2 µg/mL
same,MIC50,[1]; 48 h,0.5 µg/mL
same,MIC,"[1]; ATCC630, read-out: minimum inhibitory concentration (MIC), C. difficile ATCC 630",0.25 µg/mL
same,MIC,"[1]; ATCC43255, read-out: minimum inhibitory concentration (MIC), C. difficile ATCC 43255",0.25 µg/mL
same,MIC,"[1]; ATCCBAA1870, read-out: minimum inhibitory concentration (MIC), C. difficile ATCC BAA-1870 (Ribotype-027), purchased compounds, panel test",1 µg/mL
same,MIC,"[1]; read-out: minimum inhibitory concentration (MIC), C. difficile CD-1 (Ribotype-027)",2 µg/mL
same,MIC,"[1]; read-out: minimum inhibitory concentration (MIC), C. difficile CD-6 (Ribotype-027)",2 µg/mL
same,MIC,"[1]; read-out: minimum inhibitory concentration (MIC), C. difficile CD-10(Ribotype-027)",2 µg/mL
same,MIC,"[1]; read-out: minimum inhibitory concentration (MIC), C. difficile CD-12",1 µg/mL
same,MIC,"[1]; read-out: minimum inhibitory concentration (MIC), C. difficile CD-13",0.5 µg/mL
same,MIC,"[1]; read-out: minimum inhibitory concentration (MIC), C. difficile CD-15",0.5 µg/mL
same,MIC,"[1]; read-out: minimum inhibitory concentration (MIC), C. difficile CD-22",0.5 µg/mL
same,MIC,"[1]; read-out: minimum inhibitory concentration (MIC), C. difficile CD-23",0.25 µg/mL
same,MIC,"[1]; read-out: minimum inhibitory concentration (MIC), C. difficile CD-24",0.25 µg/mL
same,MIC,"[1]; read-out: minimum inhibitory concentration (MIC), C. difficile CD-26 (Ribotype-027)",1 µg/mL
same,MIC,"[1]; read-out: minimum inhibitory concentration (MIC), C. difficile CD-28",0.5 µg/mL
same,MIC,"[1]; read-out: minimum inhibitory concentration (MIC), C. difficile CD-29 (Ribotype-027)",1 µg/mL
same,MIC,"[1]; read-out: minimum inhibitory concentration (MIC), C. difficile CD-30",0.5 µg/mL
same,MIC,"[1]; read-out: minimum inhibitory concentration (MIC), C. difficile NR-49302",0.5 µg/mL
same,MIC,"[1]; read-out: minimum inhibitory concentration (MIC), C. difficile NR-49304",0.5 µg/mL
same,MIC,"[1]; read-out: minimum inhibitory concentration (MIC), C. difficile NR-49308",0.5 µg/mL
same,MIC,"[1]; read-out: minimum inhibitory concentration (MIC), C. difficile NR-49319",0.5 µg/mL
same,MIC50,[1],0.5 µg/mL
same,minimum inhibitory concentration (MIC),[2],32 µg/mL
same,MIC,[2],16 µg/mL
same,MIC,[3],16 µg/mL
same,MIC,"[4]; ATCC15700, read-out: minimum inhibitory concentration (MIC)",≤ 2 µg/mL
same,MIC,[5],≤ 2 µg/mL
same,MIC,[6],≤ 2 µg/mL
same,MIC,[7],≤ 2 µg/mL
same,MIC,[8],≤ 2 µg/mL
same,MIC,[9],> 256 µg/mL
same,MIC,"[10]; ATCC334, read-out: minimum inhibitory concentration (MIC)",> 256 µg/mL
same,MIC,"[11]; ATCC14864, read-out: minimum inhibitory concentration (MIC)",> 256 µg/mL
same,MIC,"[12]; ATCC53103, read-out: minimum inhibitory concentration (MIC)",> 256 µg/mL
same,time to eliminate / clear C. difficile,[13],≤ 24 h
same,MIC,[14],1 µg/mL
Cc1ccc2c(Cl)cc(Cl)c(O)c2n1 [Chlorquinaldol],MIC50,"[1]; 48 h, read-out: MIC50",0.125 µg/mL
same,MIC,"[1]; ATCC630, C. difficile ATCC 630, read-out: minimum inhibitory concentration (MIC)",0.25 µg/mL
same,MIC,"[1]; ATCC43255, C. difficile ATCC 43255, read-out: minimum inhibitory concentration (MIC)",0.06 µg/mL
same,MIC,"[1]; ATCCBAA1870, C. difficile ATCC BAA-1870 (Ribotype-027), purchased compounds, panel test, read-out: minimum inhibitory concentration (MIC)",0.125 µg/mL
same,MIC,"[1]; C. difficile CD-1 (Ribotype-027), read-out: minimum inhibitory concentration (MIC)",0.125 µg/mL
same,MIC,"[1]; C. difficile CD-6 (Ribotype-027), read-out: minimum inhibitory concentration (MIC)",0.125 µg/mL
same,MIC,"[1]; C. difficile CD-10(Ribotype-027), read-out: minimum inhibitory concentration (MIC)",0.125 µg/mL
same,MIC,"[1]; C. difficile CD-12, read-out: minimum inhibitory concentration (MIC)",0.25 µg/mL
same,MIC,"[1]; C. difficile CD-13, read-out: minimum inhibitory concentration (MIC)",0.25 µg/mL
same,MIC,"[1]; C. difficile CD-15, read-out: minimum inhibitory concentration (MIC)",0.125 µg/mL
same,MIC,"[1]; C. difficile CD-22, read-out: minimum inhibitory concentration (MIC)",0.125 µg/mL
same,MIC,"[1]; C. difficile CD-23, read-out: minimum inhibitory concentration (MIC)",0.125 µg/mL
same,MIC,"[1]; C. difficile CD-24, read-out: minimum inhibitory concentration (MIC)",0.06 µg/mL
same,MIC,"[1]; C. difficile CD-26 (Ribotype-027), read-out: minimum inhibitory concentration (MIC)",0.125 µg/mL
same,MIC,"[1]; C. difficile CD-28, read-out: minimum inhibitory concentration (MIC)",0.125 µg/mL
same,MIC,"[1]; C. difficile CD-29 (Ribotype-027), read-out: minimum inhibitory concentration (MIC)",0.06 µg/mL
same,MIC,"[1]; C. difficile CD-30, read-out: minimum inhibitory concentration (MIC)",0.5 µg/mL
same,MIC,"[1]; C. difficile NR-49302, read-out: minimum inhibitory concentration (MIC)",0.125 µg/mL
same,MIC,"[1]; C. difficile NR-49304, read-out: minimum inhibitory concentration (MIC)",0.06 µg/mL
same,MIC,"[1]; C. difficile NR-49308, read-out: minimum inhibitory concentration (MIC)",0.06 µg/mL
same,MIC,"[1]; C. difficile NR-49319, read-out: minimum inhibitory concentration (MIC)",0.06 µg/mL
same,MIC50,[1]; read-out: MIC50,0.125 µg/mL
same,MIC90,"[1]; concentration that inhibited 90% of the 20 C. difficile clinical isolates, read-out: MIC90",0.25 µg/mL
same,MIC,"[2]; B. fragilis HM- 709, BHIS broth, anaerobic",≤ 2 µg/mL
same,MIC,"[2]; B. fragilis HM- 718, BHIS broth, anaerobic",≤ 2 µg/mL
same,MIC,"[3]; B. dorei HM- 719, BHIS broth, anaerobic",≤ 2 µg/mL
same,MIC,"[4]; ATCC15700, Bif. breve ATCC 15700, BHIS broth, anaerobic, read-out: minimum inhibitory concentration (MIC)",> 256 µg/mL
same,MIC,"[5]; Bif. angulatum HM- 1189, BHIS broth, anaerobic",32 µg/mL
same,MIC,"[6]; Bif. adolescentis HM- 633, BHIS broth, anaerobic",32 µg/mL
same,MIC,"[7]; Bif. longum HM- 845, BHIS broth, anaerobic",128 µg/mL
same,MIC,"[7]; Bif. longum HM- 846, BHIS broth, anaerobic",32 µg/mL
same,MIC,"[7]; Bif. longum HM- 847, BHIS broth, anaerobic",64 µg/mL
same,MIC,"[7]; Bif. longum HM- 848, BHIS broth, anaerobic",64 µg/mL
same,MIC,"[8]; E. faecium HM-202, TSB, aerobic",> 256 µg/mL
same,MIC,"[9]; E. fecalis HM-970, TSB, aerobic",128 µg/mL
same,MIC,"[10]; ATCC334, L. casei ATCC 334, MRS broth, 5% CO2, read-out: minimum inhibitory concentration (MIC)",> 256 µg/mL
same,MIC,"[11]; ATCC14864, L. brevis ATCC-14864, MRS broth, 5% CO2, read-out: minimum inhibitory concentration (MIC)",> 256 µg/mL
same,MIC,"[12]; ATCC53103, L. rhamanosus ATCC-53103, MRS broth, 5% CO2, read-out: minimum inhibitory concentration (MIC)",> 256 µg/mL
same,MIC (μM),[14]; [15],2 µM
same,MIC,[14]; [15],0.91 µg/mL
